In patent US8273890B2 (4SC AG, priority 2007, dated 2012):

Molecular target: T1, recombinant Plk1 protein (Homo sapiens, UniProt P53350)
T1 construct: histidine tag (N); made in house; host or cells: SF9 insect cells
Experiment: Plk1 kinase activity inhibition assay (33P-ATP, alpha casein substrate, flash plates)
Type: biochemical
Conditions: enzymatic assay, 100 nM Li-ATP, 80 minutes at 30° C.
Method: The inhibition of Plk1 kinase activity can be measured using recombinant Plk1 protein expressed as an N-terminally histidine-tagged protein in SF9 insect cells and alpha casein as substrate. The Plk1 assay is run in 96 well plates by incubating 50 to 100 ng per well recombinant Plk1, 500 ng per well alpha casein (Sigma, # C-6780) as substrate, 10 μl of compound of invention (test compounds were dissolved as 20 mM solutions in dimethylsulfoxide (DMSO) and subsequently diluted), and 100 nM Li-ATP (including ^33P-ATP) in 100 μl of reaction buffer ([…] HEPES, pH 7.5; 3 mM MgCl2; 3 mM MnCl2; 3 μM Na-Orthovanadat; 1 mM DTT; 1 μg/ml PEG 8000) for 80 minutes at 30° C. The reactions are terminated by adding 100 μl stopping buffer (2% H3PO4 for 5 minutes) and are washed 3 times with washing solution (0.9% NaCl). Determining ^33P incorporated into the protein substrate alpha casein, the detection is based on the adhesion of the phosphorylated protein to the surface of scintillator-coated flash plates (Perkin Elmer, USA; #SMP-200). Phosphorylation of alpha casein is measured by counting the radioactivity bound to the plate for 60 sec. using a plate reader (Perkin Elmer, USA; Wallac Microbeta). By this method, the IC50 value of the Plk1 inhibition is determined as described above.

T1 sequence (P53350 whole entry): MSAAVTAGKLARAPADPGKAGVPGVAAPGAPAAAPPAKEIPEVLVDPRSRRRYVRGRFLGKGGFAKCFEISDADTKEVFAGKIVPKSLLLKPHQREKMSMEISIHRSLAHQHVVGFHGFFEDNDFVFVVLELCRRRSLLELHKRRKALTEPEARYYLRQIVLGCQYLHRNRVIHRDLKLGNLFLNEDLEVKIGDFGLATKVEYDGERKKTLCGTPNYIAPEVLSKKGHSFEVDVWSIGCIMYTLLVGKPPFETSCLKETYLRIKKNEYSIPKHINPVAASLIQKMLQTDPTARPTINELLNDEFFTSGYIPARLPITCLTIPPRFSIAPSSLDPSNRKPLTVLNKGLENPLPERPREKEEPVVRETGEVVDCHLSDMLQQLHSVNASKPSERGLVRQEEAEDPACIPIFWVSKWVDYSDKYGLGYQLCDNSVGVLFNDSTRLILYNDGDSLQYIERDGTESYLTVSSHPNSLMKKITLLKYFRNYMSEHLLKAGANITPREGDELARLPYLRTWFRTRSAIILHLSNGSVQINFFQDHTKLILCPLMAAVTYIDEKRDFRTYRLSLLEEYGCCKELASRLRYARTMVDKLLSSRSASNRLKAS

IC50 | Structure (SMILES)
100 to 1000 nM | C[C@@H](Oc1cc(-n2cnc3cnc(CN4CCN(CCN(C)C)CC4)cc32)sc1C(N)=O)c1ccccc1F [Example 136, 5-[6-({4-[2-(dimethylamino)ethyl]piperazin-1-yl}methyl)-1H-imidazo[4,5-c]pyridin-1-yl]-3-[(1R)-1-(2-fluorophenyl)ethoxy]thiophene-2-carboxamide]
10 to 100 nM | CCC(Oc1cc(-n2cnc3cnc(CN4CCN(C5CC5)CC4)cc32)sc1C(N)=O)c1ccccc1Cl (stereo not shown) [Example 140, 3-{[1-(2-chlorophenyl)propyl]oxy}-5-{6-[(4-cyclopropylpiperazin-1-yl)methyl]-1H-imidazo[4,5-c]pyridin-1-yl}thiophene-2-carboxamide]
< 10 nM | CC(Oc1cc(-n2cnc3cnc(CO)cc32)sc1C(N)=O)c1ccccc1OC(F)F (stereo not shown) [Example 53]
< 10 nM | C[C@@H](Oc1cc(-n2cnc3cnc(CN4CCN(C)CC4CO)cc32)sc1C(N)=O)c1ccccc1C(F)(F)F (stereo partly drawn) [Example 126, 5-(6-{[2-(hydroxymethyl)-4-methylpiperazin-1-yl]methyl}-1H-imidazo[4,5-c]pyridin-1-yl)-3-{(1R)-1-[2-(trifluoromethyl)phenyl]ethoxy}thiophene-2-carboxamide]
10 to 100 nM | C[C@@H](Oc1cc(-n2cnc3cnc(CN4CCN(c5ncccn5)CC4)cc32)sc1C(N)=O)c1ccccc1C(F)(F)F [Example 77, 5-{6-[(4-pyrimidin-2-ylpiperazin-1-yl)methyl]-1H-imidazo[4,5-c]pyridin-1-yl}-3-{(1R)-1-[2-(trifluoromethyl)phenyl]ethoxy}thiophene-2-carboxamide]
10 to 100 nM | C[C@@H](Oc1cc(-n2cnc3cnc(CN4CCN(CCN5CCOCC5)CC4)cc32)sc1C(N)=O)c1ccccc1C(F)(F)F [Example 80, 5-(6-{[4-(2-morpholin-4-ylethyl)piperazin-1-yl]methyl}-1H-imidazo[4,5-c]pyridin-1-yl)-3-{(1R)-1-[2-(trifluoromethyl)phenyl]ethoxy}thiophene-2-carboxamide]
100 to 1000 nM | CCNCc1cc2ncn(-c3cc(O[C@H](C)c4ccccc4C(F)(F)F)c(C(N)=O)s3)c2cn1 [Example 117, 5-{6-[(ethylamino)methyl]-3H-imidazo[4,5-c]pyridin-3-yl}-3-{(1R)-1-[2-(trifluoromethyl)phenyl]ethoxy}thiophene-2-carboxamide]
< 10 nM | CC(Oc1cc(-n2cnc3cc(CO)ncc32)sc1C(N)=O)c1ccccc1Cl (stereo not shown) [Example 125, 3-[-1-(2-chlorophenyl)ethoxy]-5-[6-(hydroxymethyl)-3H-imidazo[4,5-c]pyridin-3-yl]thiophene-2-carboxamide]
10 to 100 nM | C[C@@H](Oc1cc(-n2cnc3cnc(CN4CCN(c5cnccn5)CC4)cc32)sc1C(N)=O)c1ccccc1C(F)(F)F [Example 84, 5-{6-[(4-pyrazin-2-ylpiperazin-1-yl)methyl]-1H-imidazo[4,5-c]pyridin-1-yl}-3-{(1R)-1-[2-(trifluoromethyl)phenyl]ethoxy}thiophene-2-carboxamide]
10 to 100 nM | COc1cc2c(cn1)ncn2-c1cc(OCc2ccccc2C(F)(F)F)c(C(=O)O)s1 [Example 18, 5-(6-Methoxy-1H-imidazo[4,5-c]pyridin-1-yl)-3-{[2-(trifluoromethyl)benzyl]oxy}thiophene-2-carboxylic acid]
10 to 100 nM | C[C@@H](Oc1cc(-n2cnc3cnc(CN4CCN(CC(=O)N(C)C)CC4)cc32)sc1C(N)=O)c1ccccc1C(F)(F)F [Example 87, 5-[6-({4-[2-(dimethylamino)-2-oxoethyl]piperazin-1-yl}methyl)-1H-imidazo[4,5-c]pyridin-1-yl]-3-{(1R)-1-[2-(trifluoromethyl)phenyl]ethoxy}thiophene-2-carboxamide]
10 to 100 nM | COc1cc2ncn(-c3cc(OCc4ccccc4C(F)(F)F)c(C(N)=O)s3)c2nc1OC [Example 21B, 5-(5,6-Dimethoxy-3H-imidazo[4,5-b]pyridin-3-yl)-3-{[2-(trifluoromethyl)benzyl]oxy}thiophene-2-carboxamide]
< 10 nM | CCc1ccccc1COc1cc(-n2cnc3cnc(CN4CCN(C)CC4)cc32)sc1C(N)=O [Example 153, 3-[(2-ethylbenzyl)oxy]-5-{6-[(4-methylpiperazin-1-yl)methyl]-1H-imidazo[4,5-c]pyridin-1-yl}thiophene-2-carboxamide]
10 to 100 nM | C[C@H](Oc1cc(-n2cnc3cnc(CN4CCN(C)CC4)cc32)sc1C(N)=O)c1ccccc1C(F)(F)F [Example 48, 5-{6-[(4-methylpiperazin-1-yl)methyl]-1H-imidazo[4,5-c]pyridin-1-yl}-3-{(1S)-1-[2-(trifluoromethyl)phenyl]ethoxy}thiophene-2-carboxamide]
10 to 100 nM | NC(=O)c1sc(-n2cnc3cccnc32)cc1OCc1ccccc1C(F)(F)F [Example 19, 5-(3H-Imidazo[4,5-b]pyridin-3-yl)-3-{[2-(trifluoromethyl)benzyl]oxy}thio-phene-2-carboxamide]
100 to 1000 nM | NC(=O)c1sc(-n2cnc3cnccc32)cc1OCc1ccc(C(F)(F)F)cc1 [Example 36, 5-(1H-imidazo[4,5-c]pyridin-1-yl)-3-{[4-(trifluoromethyl)benzyl]oxy}thiophene-2-carboxamide]
10 to 100 nM | C[C@@H](Oc1cc(-n2cnc3cnc(CN4CCN(CCN(C)C)CC4)cc32)sc1C(N)=O)c1ccccc1C(F)(F)F [Example 70, 5-[6-({4-[2-(dimethylamino)ethyl]piperazin-1-yl}methyl)-1H-imidazo[4,5-c]pyridin-1-yl]-3-{(1R)-1-[2-(trifluoromethyl)phenyl]ethoxy}thiophene-2-carboxamide]
1000 to 10000 nM | CC(Oc1cc(-n2cnc3cc(CNC4CCN(C)CC4)ncc32)sc1C(N)=O)c1ccccc1F (stereo not shown) [Example 156, 3-[-1-(2-fluorophenyl)ethoxy]-5-(6-{[(1-methylpiperidin-4-yl)amino]methyl}-3H-imidazo[4,5-c]pyridin-3-yl)thiophene-2-carboxamide]
10 to 100 nM | NC(=O)c1sc(-n2cnc3cnc(CO)cc32)cc1OCc1ccccc1C(F)(F)F [Example 9, 5-[6-(Hydroxymethyl)-1H-imidazo[4,5-c]pyridin-1-yl]-3-{[2-(trifluoromethyl)benzyl]oxy}thiophene-2-carboxamide]
10 to 100 nM | NC(=O)c1sc(-n2cnc3cnccc32)cc1OCc1ccccc1OC(F)(F)F [Example 33, 5-(1H-imidazo[4,5-c]pyridin-1-yl)-3-{[2-(trifluoromethoxy)benzyl]oxy}thiophene-2-carboxamide]
< 10 nM | C[C@@H](Oc1cc(-n2cnc3cnc(CN4CCN(C(=O)N(C)C)CC4)cc32)sc1C(N)=O)c1ccccc1C(F)(F)F [Example 68, 4-{[1-(5-carbamoyl-4-{(1R)-1-[2-(trifluoromethyl)phenyl]ethoxy}-2-thienyl)-1H-imidazo[4,5-c]pyridin-6-yl]methyl}-N,N-dimethylpiperazine-1-carboxamide]
< 10 nM | CC(Oc1cc(-n2cnc3cnc(CO)cc32)sc1C(N)=O)c1ccccc1C(F)(F)F (stereo not shown) [Example 44, 5-[6-(hydroxymethyl)-1H-imidazo[4,5-c]pyridin-1-yl]-3-{1-[2-(trifluoromethyl)phenyl]ethoxy}thiophene-2-carboxamide]
< 10 nM | C[C@@H](Oc1cc(-n2cnc3cnc(CN4CCN(C)CC4)cc32)sc1C(N)=O)c1ccccc1F [Example 101, 3-[(1R)-1-(2-fluorophenyl)ethoxy]-5-{6-[(4-methylpiperazin-1-yl)methyl]-1H-imidazo[4,5-c]pyridin-1-yl}thiophene-2-carboxamide]
10 to 100 nM | CCN1CCN(Cc2cc3c(cn2)ncn3-c2cc(OC(C)c3ccccc3C)c(C(N)=O)s2)CC1 (stereo not shown) [Example 150, 5-{6-[(4-ethylpiperazin-1-yl)methyl]-1H-imidazo[4,5-c]pyridin-1-yl}-3-[1-(2-methylphenyl)ethoxy]thiophene-2-carboxamide]
10 to 100 nM | CCC(Oc1cc(-n2cnc3cnc(CN4CCN(CCOC)CC4)cc32)sc1C(N)=O)c1ccccc1Cl (stereo not shown) [Example 139, 3-{[1-(2-chlorophenyl)propyl]oxy}-5-(6-{[4-(2-methoxyethyl)piperazin-1-yl]methyl}-1H-imidazo[4,5-c]pyridin-1-yl)thiophene-2-carboxamide]
< 10 nM | C=CCN1CCN(Cc2cc3c(cn2)ncn3-c2cc(O[C@H](C)c3ccccc3C(F)(F)F)c(C(N)=O)s2)CC1 [Example 122, 5-{6-[(4-allylpiperazin-1-yl)methyl]-1H-imidazo[4,5-c]pyridin-1-yl}-3-{(1R)-1-[2-(trifluoromethyl)phenyl]ethoxy}thiophene-2-carboxamide]
< 10 nM | C[C@@H](Oc1cc(-n2cnc3cnc(CO)cc32)sc1C(N)=O)c1ccccc1Br [Example 52, 3-[(1R)-1-(2-bromophenyl)ethoxy]-5-[6-(hydroxymethyl)-1H-imidazo[4,5-c]pyridin-1-yl]thiophene-2-carboxamide]
100 to 1000 nM | NC(=O)c1sc(-n2cnc3cc(CO)ncc32)cc1OCc1ccccc1C(F)(F)F [Example 10, 5-[6-(Hydroxymethyl)-3H-imidazo[4,5-c]pyridin-3-yl]-3-{[2-(trifluoromethyl)benzyl]oxy}thiophene-2-carboxamide]
